Measurements reported in patent US20090317373A1, “Inhibition of the Anti-FVIII Immune Response” (Institut National De La Sante Et De La Recherche Medicale, priority 2005, published 2009).
Blank lines part the entries; values can stand above or below the molecule they belong to.

Assays:
[1] = system: human DCs derived from monocytes; assay: In vitro internalization of fluorescent ligands by human DCs derived from monocytes (flow cytometry); assay type: cell-based
Protocol: DCs were prepared from monocytes as described previously (29) with a change in the culture media. Briefly, mononucleated cells were isolated from heparinized leukoplatelet layers (“buffy coats”) from healthy adult donors by adhesion on plastic cell culture dishes in RPMI 1640 medium supplemented with 10% human AB serum, glutamine and antibiotics for 60 minutes. Non-adhering cells were removed by 3 gentle washings with the medium. The adhering monocytes were cultured in X-VIVO 15 medium (Cambrex Bio Sciences, Paris, France) supplemented with 1% human AB serum and antibiotics and in the presence of 500 IU/ml of recombinant human interleukin-4 (rhIL-4), R&D Systems (Lille, France) and 1,000 IU/ml of recombinant human granulocyte macrophage colony-stimulating factor (rhGM-CSF), Immunotools (Friesoythe, Germany). Half of the medium, comprising all the supplements, was replaced every two days. After culture for 5 days, the non-adhering cells and those with little adhesion, corresponding to the fraction enriched in DC, were harvested, washed and used for subsequent experiments.
Whole recombinant human FVIII (1,000 IU, Kogenate, Bayer) or B domain-deleted recombinant human FVIII (FVIII-BDD) (1,000 IU, Refacto, Wyeth) were solubilized in water and dialyzed against bicarbonate buffer (pH 9.2) containing CaCl2, 5 mM at 4° C., followed by coupling to fluorescein 5-isothiocyanate (isomer I, Sigma-Aldrich, Saint Quentin Fallavier, France) for 7-8 hours at 4° C. The labelled FVIII was then dialyzed against RPMI 1640 medium to remove non-coupled FITC. The FVIII-FITC was quantified by the Bradford method using bovine serum albumin as the standard.
The DCs obtained in Example 1 (0.4×10^5 cells/well of a 96-well plate with 100 μl/well) were incubated with various doses (0.029, 0.057, 0.143 and 0.358 μM) of fluorescent conjugated ligands (FVIII-FITC, BDD-FVIII-FITC) obtained in Example 2 in X-VIVO medium for 0, 15, 60 and 120 min at 4° C. or at 37° C. After the incubation period, the cells were washed with cold PBS and analyzed by flow cytometry. To investigate the involvement of receptors in the internalization, the cells were preincubated for 30 min at 37° C. with […] and 1 mg/ml of mannan (Sigma-Aldrich, Saint Quentin Fallavier, France) before the addition of ligands conjugated to fluorescein. In addition to FVIII-FITC and FVIII-BDD-FITC, human α2-macroglobulin-MA (α2M) conjugated to FITC from Biomac (Leipzig, Germany), dextran-FITC (molecular weight 40,000) from Molecular Probes (Leiden, The Netherlands) and Lucifer yellow (LY-CH) from Sigma-Aldrich were used. The investigation of the internalization of FVIII was also carried out in the presence of 20 μg/ml of anti-mannose receptor monoclonal antibody (PAM-1, isotype IgG1) or anti-DC-SIGN monoclonal antibody ((AZN-D1, isotype IgG1) or mouse IgGλ,k conjugated to PE-Cy (BD Pharmingen, France). To investigate whether DC-SIGN is involved in the endocytosis of FVIII, the B lymphocyte line HD-420 transformed by wild-type EBV and transfected with DC-SIGN or not transfected was incubated with various concentrations of FVIII-FITC (0, 0.036, 0.072 and 0.143 μM) for 2 hours in RPMI 1640 medium supplemented with 10% FCS (foetal calf serum) and antibiotics. The analysis was carried out as for the DCs.

[2] = system: D9E9 (T cell clone specific for FVIII); assay: In vitro activation of FVIII-specific T cell clone D9E9 (IFN-gamma production); assay type: cell-based, human; details: antigen presented by DCs; IFNγ production; FIG. 4b
Protocol: After washing, the DCs of Example 1 were resuspended in DMEM:F12 (1:1) medium containing 10% FCS and 10,000 DCs were introduced into each well of a 96-well cell culture plate with a round base. After incubation with mannan (1 mg/ml) in each well for 30 min, the DCs were cultured with 5,000 D9E9 (T cell clone specific for FVIII) in DMEM:F12 (1:1) medium containing 10% FCS and 20 U/ml of rhIL-2 with various doses of whole FVIII or FVIII-BDD (10, 8, 6, 4, 2 μg/ml) for 20 hours at 37° C. Like the D9E9 cells, the LE2E9 and BO2C11 lines of B cells transformed by EBV were cultured in the presence of 10 μg/ml of whole FVIII or FVIII-BDD. The control conditions were maintained in the absence of FVIII, D9E9 or DCs. As a negative control, hrFIX (Benefix, Baxter) was incubated with the cells at isomolar concentrations of FVIII. The supernatants were harvested at the end of the incubation period and tested for their production of IFNγ using the human IFN-γ Duo Set (DY285, R&D Systems) in accordance with the manufacturer's instructions.

[3] = biological target: T1, binding of CTLD(4-7)-Fc to FVIII-BDD (UniProt P00451+Q61830, DEL763-1656); assay: ELISA: influence of VWF on binding of CTLD(4-7)-Fc to immobilized FVIII-BDD; details: soluble VWF in a VWF:FVIII ratio excess; FIG. 9
T1 construct: CTLD(4-7)-Fc a gift of Dr L. Martinez-Pomares
T1 sequence (P00451 with tags, fused parts or gaps DEL763-1656 limits assumed): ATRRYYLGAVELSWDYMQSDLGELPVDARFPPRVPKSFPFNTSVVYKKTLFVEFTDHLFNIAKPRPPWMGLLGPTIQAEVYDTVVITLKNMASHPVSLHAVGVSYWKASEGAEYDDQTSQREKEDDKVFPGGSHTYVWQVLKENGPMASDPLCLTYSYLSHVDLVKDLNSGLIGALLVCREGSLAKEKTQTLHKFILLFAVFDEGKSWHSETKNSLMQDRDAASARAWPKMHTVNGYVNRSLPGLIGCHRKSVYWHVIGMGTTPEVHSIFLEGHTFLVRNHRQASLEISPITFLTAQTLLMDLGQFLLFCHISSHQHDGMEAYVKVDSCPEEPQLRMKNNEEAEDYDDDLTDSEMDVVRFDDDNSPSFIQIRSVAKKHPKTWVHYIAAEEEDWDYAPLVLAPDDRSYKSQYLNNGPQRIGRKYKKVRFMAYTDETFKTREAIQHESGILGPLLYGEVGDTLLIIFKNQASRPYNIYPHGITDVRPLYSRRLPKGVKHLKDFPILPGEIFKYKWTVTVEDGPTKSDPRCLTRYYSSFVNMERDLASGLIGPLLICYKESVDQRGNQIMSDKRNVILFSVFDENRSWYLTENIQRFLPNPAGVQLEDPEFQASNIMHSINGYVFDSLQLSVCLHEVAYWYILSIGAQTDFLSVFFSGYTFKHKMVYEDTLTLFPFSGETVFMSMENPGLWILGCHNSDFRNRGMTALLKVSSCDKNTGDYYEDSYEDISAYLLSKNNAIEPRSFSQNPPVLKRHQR
T1 sequence (P00451 1668-2351 limits assumed): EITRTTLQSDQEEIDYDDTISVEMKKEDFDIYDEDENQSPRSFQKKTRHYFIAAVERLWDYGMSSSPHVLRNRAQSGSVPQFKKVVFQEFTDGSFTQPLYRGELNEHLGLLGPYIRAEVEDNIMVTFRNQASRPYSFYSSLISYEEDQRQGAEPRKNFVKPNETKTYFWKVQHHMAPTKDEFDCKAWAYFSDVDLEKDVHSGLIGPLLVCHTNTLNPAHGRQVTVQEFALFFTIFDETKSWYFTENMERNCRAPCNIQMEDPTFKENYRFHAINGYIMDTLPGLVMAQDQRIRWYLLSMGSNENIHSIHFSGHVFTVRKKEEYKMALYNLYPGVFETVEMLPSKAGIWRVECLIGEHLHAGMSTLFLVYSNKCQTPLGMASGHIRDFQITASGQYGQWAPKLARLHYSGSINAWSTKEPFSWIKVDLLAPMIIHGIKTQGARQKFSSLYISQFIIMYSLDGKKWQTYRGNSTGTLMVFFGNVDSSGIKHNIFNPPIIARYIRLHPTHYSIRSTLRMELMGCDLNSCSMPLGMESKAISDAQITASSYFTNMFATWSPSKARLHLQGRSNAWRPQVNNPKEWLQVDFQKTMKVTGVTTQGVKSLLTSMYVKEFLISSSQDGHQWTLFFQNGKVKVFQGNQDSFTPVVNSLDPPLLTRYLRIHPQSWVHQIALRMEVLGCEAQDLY
T1 sequence (Q61830 20-1456): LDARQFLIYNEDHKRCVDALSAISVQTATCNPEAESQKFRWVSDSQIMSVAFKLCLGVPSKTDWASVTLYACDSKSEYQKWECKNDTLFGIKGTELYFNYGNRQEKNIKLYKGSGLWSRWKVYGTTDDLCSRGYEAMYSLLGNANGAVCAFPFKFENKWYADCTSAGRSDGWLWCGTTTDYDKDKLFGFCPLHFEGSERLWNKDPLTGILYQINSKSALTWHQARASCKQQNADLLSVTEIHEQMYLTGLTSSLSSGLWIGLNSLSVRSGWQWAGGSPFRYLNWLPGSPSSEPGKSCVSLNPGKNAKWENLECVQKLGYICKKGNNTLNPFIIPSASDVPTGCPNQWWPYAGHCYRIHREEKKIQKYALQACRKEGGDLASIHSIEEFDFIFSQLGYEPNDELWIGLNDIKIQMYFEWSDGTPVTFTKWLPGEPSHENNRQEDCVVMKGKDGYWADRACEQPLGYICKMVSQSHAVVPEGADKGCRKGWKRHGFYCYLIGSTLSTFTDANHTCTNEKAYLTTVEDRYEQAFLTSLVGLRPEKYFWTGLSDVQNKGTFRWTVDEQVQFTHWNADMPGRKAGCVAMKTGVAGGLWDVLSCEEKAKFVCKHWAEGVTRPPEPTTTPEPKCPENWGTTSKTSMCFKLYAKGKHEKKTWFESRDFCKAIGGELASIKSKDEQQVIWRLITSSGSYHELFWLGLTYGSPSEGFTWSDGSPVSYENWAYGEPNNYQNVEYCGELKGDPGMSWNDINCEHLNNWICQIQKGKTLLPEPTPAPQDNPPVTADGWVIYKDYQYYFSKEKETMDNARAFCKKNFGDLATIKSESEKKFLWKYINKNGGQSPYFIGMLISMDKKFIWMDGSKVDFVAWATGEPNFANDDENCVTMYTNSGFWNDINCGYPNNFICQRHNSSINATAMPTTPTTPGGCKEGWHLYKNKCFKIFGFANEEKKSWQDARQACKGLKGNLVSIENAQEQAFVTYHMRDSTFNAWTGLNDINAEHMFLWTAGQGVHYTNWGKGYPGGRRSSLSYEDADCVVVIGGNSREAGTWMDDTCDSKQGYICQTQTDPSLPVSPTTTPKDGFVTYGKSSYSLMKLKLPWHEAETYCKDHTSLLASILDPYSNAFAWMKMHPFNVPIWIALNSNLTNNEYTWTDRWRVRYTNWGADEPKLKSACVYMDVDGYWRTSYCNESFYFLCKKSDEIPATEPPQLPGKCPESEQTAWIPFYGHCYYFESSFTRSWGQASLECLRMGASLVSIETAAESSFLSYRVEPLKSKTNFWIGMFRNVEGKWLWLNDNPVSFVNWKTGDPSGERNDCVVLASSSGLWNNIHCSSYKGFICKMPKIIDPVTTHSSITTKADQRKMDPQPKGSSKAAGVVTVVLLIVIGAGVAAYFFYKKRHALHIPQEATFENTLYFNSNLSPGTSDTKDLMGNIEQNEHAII
Protocol: ELISA plates are coated with FVIII-BDD (5.56 μg/ml, 0.033 μM). VWF (0 to 1 μM) is incubated with 10 μg/ml of the construct CTLD(4-7)-Fc for 30 min at room temperature and added to immobilized FVIII-BDD.

[4] = cells preincubated with 5 mM EDTA

Molecule: O=C[C@H](O)[C@@H](O)[C@@H](O)[C@H](O)CO [D-galactose, reference compound]
reduction of internalization of FVIII ([1]; D-galactose, independently of presence or absence of domain B): did not significantly reduce

Molecule: O=C(O)CN(CCN(CC(=O)O)CC(=O)O)CC(=O)O [EDTA, reference compound]
inhibition of internalization of FVIII-BDD by immature DCs [1, 4]: 62.4±11.4% | inhibition of internalization of whole FVIII by immature DCs [1, 4]: 58.1±11.1%

Molecule: FIX: hrFIX (Benefix, Baxter), negative control
activation of D9E9 cells [2]: absence of proliferation

inhibition of interaction of CTLD(4-7)-Fc with immobilized FVIII [3]: 43%
Molecule: VWF: von Willebrand factor (Willefectin, LFB)

B1: RAP: receptor-associated protein of 38 kD, blocks endocytosis of ligands by LDL receptor family members such as CD91/LRP (protein, UniProt P30533 35-357, looked up)
Alpha-2-macroglobulin …: YSREKNQPKPSPKRESGEEFRMEKLNQLWEKAQRLHLPPVRLAELHADLKIQERDELAWKKLKLDGLDEDGEKEARLIRNLNVILAKYGLDGKKDARQVTSNSLSGTQEDGLDDPRLEKLWHKAKTSGKFSGEELDKLWREFLHHKEKVHEYNVLLETLSRTEEIHENVISPSDLSDIKGSVLHSRHTELKEKLRSINQGLDRLRRVSHQGYSTEAEFEEPRVIDLWDLAQSANLTDKELEAFREELKHFEAKIEKHNHYQKQLEIAHEKLRHAESVGDGERVSRSREKHALLEGRTKELGYTVKKHLQDLSGRISRARHNEL
prevention of endocytosis of FVIII by the DCs ([1]; excess of RAP): did not allow the endocytosis of FVIII by the DCs to be prevented | inhibition of internalization of α2M ([1]; excess of RAP or mannan, FIG. 2f): inhibited completely
